According to US8883763B2 (Universite Joseph Fourier, priority 2010, dated 2014):

Assays:
PP1α (PP1CA) = molecular target: T1, PP1α (PP1CA) (Oryctolagus cuniculus, UniProt P62139); assay: Protein phosphatase test (PP1 activity, DiFMUP fluorescent substrate); assay type: biochemical; conditions: PP1CA at 80 mU, fluorescent substrate (50 μM), molecules from 50 μM to 50 nM; read-out: PP1 Inhibition IC50
T1 construct: purchased New England Biolabs P0754
Experimental: FIG. 13 presents the graph showing the inhibition of the PP1Cα activity by compound 6 in vitro. PP1Cα (New England Biolabs, 30 mU/well) was incubated in the presence of compound 6 at different concentrations and a fluorescent substrate, diFMUP.
Determination of the 1050 was carried out with PP1CA at 80 mU in the presence of a fluorescent substrate
(50 μM) and different concentrations of molecules from 50 μM to 50 nM.
For the activity tests, PP1α (New England Biolabs # P0754) was used at a final concentration of 30 mU or 80 mU for the screening of all the analogues. 6,8-difluoro-4-methylumbelliferyl phosphate (DiFMUP, Invitrogen # D6567) was used as fluorescent substrate at a concentration of […]. All the tests were carried out in a final volume of 100 μl, at 37° C. in 96-microwell plates (Greiner #655096).
Compound 6, combretastatin A4 (CA-4) as well as all the analogues were diluted in 50 μl of PP1 buffer (100 mM Tris-HCl, pH 7.5, 4 mM DTT, 0.2 mM EDTA, 0.5 mM MnCl2) from 50 μM to 50 nM. Corresponding quantities of DMSO were added to control wells. PP1α (30 or 80 mU in 30 μl of PP1 buffer) was added to each well. After incubating for 15 minutes at AT, the substrate was added (in 20 μl of PP1 buffer). After incubating for 20 minutes at 37° C., the fluorescence was measured in a plate fluorometer at 355-460 nm in order to assay the phosphatase activity. The test was carried out three times in duplicate for each condition.

bovine brain tubulin = assay: In vitro tubulin polymerization test (turbidimetry at 350 nm); assay type: biochemical; conditions: molecules at 50 μM, calculated at t=3000 s, DMSO control = 100%
Experimental: Tubulin was purified from bovine brain using the polymerization-depolymerization process described by (Castoldi M and Popov A V. Protein Expr Purif. 2003, 32(1): pp 83-8).
The in vitro tubulin polymerization tests (at 50 μM) were carried out in the presence of GTP 1 mM in BRB80 buffer (80 mM K-PIPES pH 6.8, 1 mM MgCl2, 1 mM EGTA) at 37° C. The tests were carried out in 96-microwell plates (half-wells) (Costar plates, Corning #3695), in triplicate with a final volume of 70 μl. Tubulin assembly was carried out in the presence of compound 6 or its analogues (all used at a concentration of 50 μM) and was monitored by turbidimetry measurement at 350 nm using a spectrophotometer (Spectramax More, Molecular Devices).
Measurement of the effect of a molecule on polymerization was calculated at t=3000 s taking the value of the control at the same time as being equal to 100%.

HeLa cells = assay: Indirect immunofluorescence: effect on HeLa cells (mitotic arrest, microtubule depolymerization); assay type: cell-based, human; set-up: key to Effect on Hela at 25 μM / Effect on Hela at 100 μM / Effect on Hela at 50 and 100 μM / Effect on Hela at 50 μM: —: −: no activity on the cells at 25 μM (if there is an effect at high concentrations, this is specified in the table).; *: weak activity (MA and/or slight depolymerization of the MTs and/or slight inhibition of proliferation),; **: average activity (MA and/or moderate depolymerization of the MTs and/or moderate inhibition of proliferation),; ***: strong activity (MA and/or pronounced depolymerization of the MTs and/or pronounced inhibition of proliferation),; ****: very strong activity (MA and/or very pronounced depolymerization of the MTs and/or strong inhibition of proliferation); conditions: 24 hours; for Effect on Hela at 25 μM: mitotic index and/or depolymerization of the MTs
Experimental: The cells were cultured on slides in 24-well plates and incubated for 24 hours with molecule 6 at different concentrations from 1 to 10 μM.
Corresponding quantities of DMSO were added to the culture medium in the control wells.
The cells were fixed in a solution of PBS with 4% paraformaldehyde (PFA) and 0.1% glutaraldehyde (GA), for 15 minutes and centrifuged at 300 g for the last 10 minutes of the fixing. The slides were rinsed in PBS and the free aldehyde groups were reduced by two successive 5-minute incubations in PBS containing 1 mg/ml of NaBH4.
After one washing with PBS then another with PBST (PBS with 0.5% triton-X-100), the cells are incubated for 30 minutes at ambient temperature with anti α-tubulin monoclonal antibody solution (DM1A clone, Sigma # T6199) diluted to 1:200 in PBST. After 3 10-minute washings with PBST, the cells are incubated for 30 minutes at ambient temperature in a solution of goat anti-mouse polyclonal antibodies coupled with Alexa 488 (1:1000, Molecular Probes # A-11029) and phalloidin coupled with Texas red to label the actin (1:2000, Molecular Probes # T7471), in PBST also containing Hoechst 33258 (1 μg/ml) for labelling the DNA. After 3 10-minute washings in PBST, the slides are mounted on plates in Fluorsave™ mounting medium (Calbiochem #345789) and are observed and analyzed using an Axiovert 200M inverted fluorescence microscope (Zeiss®). The images are produced with a Plan-Apochromat 63× oil objective (Zeiss®) by means of a Coolsnap HQ camera (Roper Scientifics®) and with Metamorph acquisition software (Universal Imaging™ Corporation).
In order to evaluate the effect of the analogues of compound 6 on PHFs and HeLa cells, the immunofluorescence technique described above was used and adapted to a 96-well dish format. The cells were seeded in glass-bottomed 96-well dishes and incubated for 24 hours in the presence of different concentrations of molecules from 100 μM to 50 nM. And in the same way as described above, the cells were fixed and immunolabelled. Analysis of the phenotypes as well as counting the mitotic cells were carried out with the same microscope but using a ×40 objective (Olympus). The molecules were compared with each other with respect to the mitotic arrest induced on PHFs and HeLa cells at 25 and 0.3 μM.
The mitotic index and/or the depolymerization of the MTs were evaluated at 25 μM.

HMEC cells = assay: Proliferation of HMEC cells (GI50); assay type: cell-based; conditions: Homo sapiens, 120 h, 50 μM to 1 nM for 5 days
Experimental: The HMECs were seeded at 10% confluence and incubated with the molecules at different concentrations (from 50 μM to 1 nM) for 5 days. The GI50 (50% Growth Inhibition) defines the concentration inducing a 50% reduction in proliferation with respect to the control.

T1 sequence (P62139 whole entry): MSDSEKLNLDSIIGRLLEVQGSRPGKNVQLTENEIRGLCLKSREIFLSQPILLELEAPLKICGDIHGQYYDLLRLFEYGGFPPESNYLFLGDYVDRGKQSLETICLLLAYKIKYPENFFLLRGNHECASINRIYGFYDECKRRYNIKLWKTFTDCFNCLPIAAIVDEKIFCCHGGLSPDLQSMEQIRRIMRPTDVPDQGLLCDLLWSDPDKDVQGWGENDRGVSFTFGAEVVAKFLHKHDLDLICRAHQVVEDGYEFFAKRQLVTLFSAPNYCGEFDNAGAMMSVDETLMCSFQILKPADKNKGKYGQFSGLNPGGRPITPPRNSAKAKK

| SMILES | IC50 (PP1α (PP1CA)) [µM] | melting point [°C] | Tubulin polymerization inhibition (bovine brain tubulin) | Effect on Hela at 25 μM (HeLa cells) | Effect on Hela at 50 μM (HeLa cells; 50 μM) | GI50 (HMEC cells) [µM] | Effect on Hela at 100 μM (HeLa cells) |
| --- | --- | --- | --- | --- | --- | --- | --- |
| COc1ccc(-c2nc(SCc3ccccc3)c3cc(OC)ccc3c2[N+](=O)[O-])cc1 [Compound 21, 1-(Benzylthio)-7-methoxy-3-(4-methoxyphenyl)-4-nitroisoquinoline] | 25 to 50 | 148 to 150 | +++ ((+++) signifies that the molecule induces tubulin assembly inhibition in vitro of more than 50% with respect to the DMSO control.) | — |  | > 50 |  |
| COc1ccc(-c2[nH]c(=O)c3cc(OC)ccc3c2Br)cc1 [Compound 15, 4-Bromo-7-methoxy-3-(4-methoxyphenyl)isoquinoline-1(2H)-one] | > 50 | 240 to 242 | ++ ((++) signifies that the molecule induces tubulin assembly inhibition in vitro comprised between 26 and 50% of the DMSO control.) | *** |  | 0.1 to 1 |  |
| COc1ccc(-c2[nH]c(=O)c3cc(OC)ccc3c2I)cc1 [Compound 16, 4-Iodo-7-methoxy-3-(4-methoxyphenyl)isoquinoline-1(2H)-one] | > 50 | 216 to 218 | +++ ((+++) signifies that the molecule induces tubulin assembly inhibition in vitro of more than 50% with respect to the DMSO control.) | *** |  | 0.1 to 1 |  |
| COc1ccc(-c2nc(OC)c3cc(OC)ccc3c2[N+](=O)[O-])cc1 [Compound 19, 1,7-Dimethoxy-3-(4-methoxyphenyl)-4-nitroisoquinoline] | 25 to 50 | 176 to 178 | + ((+) signifies that the molecule induces tubulin assembly inhibition in vitro comprised between 6 and 25% of the DMSO control.) | — |  | > 50 | ** |
| COc1ccc(-c2nc(Cl)c3cc(OC)ccc3c2Br)cc1 [Compound 26, 4-Bromo-1-chloro-7-methoxy-3-(4-methoxyphenyl)isoquinoline] | > 50 | 164 to 166 | — ((−) signifies that the molecule induces little or no tubulin assembly inhibition in vitro: 0+ or − −5% of the DMSO control.) | — |  | > 50 |  |
| COc1ccc(-c2cc3ccc(OC)cc3c(=S)[nH]2)cc1 [Compound 12, 7-Methoxy-3-(4-methoxyphenyl)isoquinoline-1(2H)-thione] | ≤ 9 | 188 to 190 | ++ ((++) signifies that the molecule induces tubulin assembly inhibition in vitro comprised between 26 and 50% of the DMSO control.) | — |  | 1 to 25 | * |
| COc1ccc(-c2[nH]c(=O)c3cc(OC)ccc3c2NC=O)cc1 [Compound 24, N-(7-Methoxy-3-(4-methoxyphenyl)-1-oxo-1,2-dihydroisoquinoline-4-yl)methanamide] | > 50 | > 270 | + ((+) signifies that the molecule induces tubulin assembly inhibition in vitro comprised between 6 and 25% of the DMSO control.) | **** |  | 1 to 25 |  |

Further lines, with some results ahead:

| IC50 (PP1α (PP1CA)) [µM] | melting point [°C] | SMILES | Tubulin polymerization inhibition (bovine brain tubulin) | Effect on Hela at 25 μM (HeLa cells) | Effect on Hela at 50 μM (HeLa cells; 50 μM) | GI50 (HMEC cells) [µM] | Effect on Hela at 100 μM (HeLa cells) |
| --- | --- | --- | --- | --- | --- | --- | --- |
| > 50 | 220 | COC(=O)c1nnn(-c2c(-c3ccc(OC)cc3)[nH]c(=O)c3cc(OC)ccc23)c1C(=O)OC [Compound 48, Dimethyl 1-[7-methoxy-3-(4-methoxyphenyl)-1-oxo-1,2-dihydroisoquinolin-4-yl]-1H-[1,2,3]triazole-4,5-dicarboxylate] | — ((−) signifies that the molecule induces little or no tubulin assembly inhibition in vitro: 0+ or − −5% of the DMSO control.) | — | * | 25 to 50 |  |
| 10 to 24 | > 250 | COc1ccc2cc(-c3ccc(Br)cc3)[nH]c(=O)c2c1 [Compound 32, 3-(4-Bromophenyl)-7-methoxyisoquinolin-1(2H)-one] | — ((−) signifies that the molecule induces little or no tubulin assembly inhibition in vitro: 0+ or − −5% of the DMSO control.) | **** |  | 0.1 to 1 |  |
| 10 to 24 | 252 to 254 | COc1ccc2c([N+](=O)[O-])c(-c3ccc(OCc4ccccc4)cc3)[nH]c(=O)c2c1 [Compound 46, 3-(4-(Benzyloxy)phenyl)-7-methoxy-4-nitroisoquinolin-1(2H)-one] | + ((+) signifies that the molecule induces tubulin assembly inhibition in vitro comprised between 6 and 25% of the DMSO control.) | — |  | > 50 |  |
| ≥ 50 | 177 to 179 | C#CCOc1nc(-c2ccc(OC)cc2)c([N+](=O)[O-])c2ccc(OC)cc12 [Compound 29, 7-Methoxy-3-(4-methoxyphenyl)-4-nitro-1-(prop-2ynyloxy)isoquinoline] | + ((+) signifies that the molecule induces tubulin assembly inhibition in vitro comprised between 6 and 25% of the DMSO control.) | — |  | > 50 |  |
| > 50 | 138 to 140 | COc1ccc(-c2nc(OC)c3cc(OC)ccc3c2Br)cc1 [Compound 27, 4-Bromo-1,7-Dimethoxy-3-(4-methoxyphenyl)isoquinoline] | + ((+) signifies that the molecule induces tubulin assembly inhibition in vitro comprised between 6 and 25% of the DMSO control.) | — |  | 25 to 50 |  |
